Data reported in PMC9414910, “Optimized ^68Ga-Labeled Urea-Based PSMA-Targeted PET Tracers for Prostate Cancer” (Pharmaceuticals, 2022).

Experiments:
22Rv1 cells (mild PSMA+) = assay: Cell uptake / binding in 22Rv1 cells; assay type: cell-based, human; settings: 60 min incubation, 37 °C
From the text: Cell lines were kindly provided by the stem cell bank of the Chinese Academy of Sciences. The human prostate cancer epithelial cell lines 22Rv1 (mild PSMA+) and PC-3 (with no PSMA receptor) were used to evaluate the specific cell-binding affinity of the radiotracers, and the results were expressed as percentages of injected activity, IA%/10^6.
Cell Lines and Culture Condition
Cell lines were kindly provided by the stem cell bank, the Chinese Academy of Sciences. The human prostate cancer cell lines 22Rv1 ( mild PSMA positive) and PC3 (PSMA negative) were cultured in RPMI 1640 medium or F12K medium (CORNING, America), supplemented with 10% Fetal Bovine Serum
(GIBCO, The Netherlands) and 1% penicillin-streptomycin (CORNING, America) in a humidified incubator at 37 °C under 5% CO2. Each cell line was passaged when it was at around 80-90% confluence, and harvested using trypsin-ethylenediaminetetraacetic acid (trypsin-EDTA; 0.25% trypsin, 0.02% EDTA, all from KeyGEN BioTECH).
Cells were seeded separately in 24 well plates (1 x 10^5 cells in 1 mL medium/well) and incubated overnight, the medium was changed 2 h before the experiment. For the binding experiments, cells were incubated with novel […]
min, 30 min and 60 min (6 wells/time point). After incubation, the medium was removed and the cells were washed twice with ice-cold phosphate-buffered saline (0.5 mL). Finally, the cells were lysed by NaOH (0.5 M, 0.5 mL). Coincubation of 2-(phosphonomethyl) pentane-1,5-dioic acid […]
(2-PMPA) solution (2 μg/well) and each radiotracer for 60 min was conducted as the blocking experiment. The radioactivity of cells was measured by a γ-counter. The studies were performed in triplicate and the results were reported as the percentage injected activity (IA%/10^6 cells). […]

22Rv1 tumors = assay: Micro-PET imaging in 22Rv1 tumor-bearing mice; assay type: in vivo; settings: 22Rv1 tumor, 60 min p.i., 7.4 MBq
Procedure: (§1) The animal studies were approved by the institutional animal care and use committee of the Chinese PLA General Hospital. Healthy male ICR mice were injected with either a novel radiotracer (37 MBq in 150 μL) or saline (150 μL) for the radiotoxicity evaluation. […] Biodistribution and micro-PET studies were performed on 22Rv1 and PC-3 xenograft models, and 2-PMPA was used as the PSMA blocker (all details are shown in the Supplementary Materials).
Table S9. Tumor-to-mu scle (T/M) ratio and tumor- to-kidney (T/K) rati o of radiotracers at 60 min p.i.
The Mice bearing 22Rv1 and PC-3 (n = 3/group) xenograft tumors were […]
Co-injection with 2-PMPA (50 μ g) and each novel tracer (7.4 MBq in 150 μL) was used for blocking. Then the mice were anesthetized with 3% (v/v) isoflurane and underwent Micro-PET scans with continuous 1% (v/v) isoflurane. The images were acquired at 60 min p.i.. In comparison, […]
into another group of mice (n = 3), and Micro-PET schedule was performed as […]
Imaging was performed on a Super Nova PET/CT scanner using a 100-mm-transaxial field of view for PET and 110-mm for CT.
Three-dimensional ordered-subsets expectation maximization reconstruction

22Rv1 tumor-bearing mice = assay: Biodistribution in 22Rv1 tumor-bearing mice; settings: for Uptake Blood, Mean / Uptake Bone, Mean / Uptake Heart, Mean / Uptake Kidney, Mean / Uptake Liver, Mean / Uptake Lung, Mean / Uptake Muscle, Mean / Uptake Spleen, Mean / Uptake Tumor (22Rv1), Mean: 0.74 MBq, n = 3; for Clearance profile in the kidneys: within 60 min p.i.
Procedure: as §1
BALB/c nude mice (male, 4-6 weeks) were inoculated subcutaneously with […]
100 mm3, the mice underwent biodistribution study and Micro-PET imaging.
The 22Rv1 tumor-bearing mice were injected with each novel radiotracer or […]
[…] Mice were sacrificed at different time points p.i. (10 min, 30 min, 60 min), tumors and interested organs were harvested, weighed and measured by a γ-counter, the results were expressed as the percentage of injected dose per gram (ID%/g).
Table S1. Uptake values for ex vivo tissues of [ 68Ga]Ga-PSMA-Q (0.74 MBq/mice) in 22Rv1 tumor-bearing mice (10, 30 and 60 min p.i., n = 3/time point).

[1] = Blood pharmacokinetics in male ICR mice; assay type: in vivo; settings: 7.4 MBq i.v., two-compartment model
Procedure: Injection of novel radiotracers or [68Ga]Ga-PSMA-617 or [68Ga]Ga-PSMA-11 […]
mice (5 mice/group), and the blood sample (5 μL) of each mouse was collected by cutting down the tail end at different time points post injection. The radioactivity of blood samples were measured by a γ-counter and the pharmacokinetics data was calculated using the WinNonlin software.
Figure S3. Time-activity curves of the blood samplesafter injection of 7.4 MBq of [68Ga]Ga-PSMA-4PY (A), [68Ga]Ga-PSMA-Q (B),[68Ga]Ga-PSMA-P (C), [68Ga]Ga-PSMA-617 (D), [68Ga]Ga-PSMA-11 (E), [68Ga]Ga-PSMA-Q-1 (F), [68Ga]Ga-PSMA-Q-2 (G) and [68Ga]Ga-PSMA-Q-3 (H).
(1 picture or pasted object on this page, not shown here)

[2] = Partition coefficient, octanol–water system; assay type: physicochemical; settings: octanol–water (v/v = 1:1), n = 3
Procedure: The partition coefficient of each novel radiotracer was determined using an octanol–water system (v/v = 1:1). The in vitro stability was determined using two systems (PBS and 5% BSA). The Ki value was measured by the NAALADase assay. The 22Rv1 and PC-3 cell lines were used for the cell-binding study and establishment of the tumor-bearing model (detailed information is shown in the Supplementary Materials).
PBS) and reported as log p ± SD. […]

[3] = biodistribution, 22Rv1 tumor-bearing mice, 60 min p.i.

SMILES | Uptake in 22Rv1 cells (22Rv1 cells (mild PSMA+)) | SUVmax of tumor (22Rv1 tumors) | Uptake Blood, Mean (22Rv1 tumor-bearing mice; 10 min p.i.) | Uptake Bone, Mean (22Rv1 tumor-bearing mice; 10 min p.i.) | Uptake Heart, Mean (22Rv1 tumor-bearing mice; 10 min p.i.) | Uptake Kidney, Mean (22Rv1 tumor-bearing mice; 10 min p.i.) | Uptake Liver, Mean (22Rv1 tumor-bearing mice; 10 min p.i.) | Uptake Lung, Mean (22Rv1 tumor-bearing mice; 10 min p.i.) | Uptake Muscle, Mean (22Rv1 tumor-bearing mice; 10 min p.i.) | Uptake Spleen, Mean (22Rv1 tumor-bearing mice; 10 min p.i.) | Uptake Tumor (22Rv1), Mean (22Rv1 tumor-bearing mice; 10 min p.i.) | Uptake Blood, Mean (22Rv1 tumor-bearing mice; 30 min p.i.) | Uptake Bone, Mean (22Rv1 tumor-bearing mice; 30 min p.i.) | Uptake Kidney, Mean (22Rv1 tumor-bearing mice; 30 min p.i.) | Uptake Liver, Mean (22Rv1 tumor-bearing mice; 30 min p.i.) | Uptake Lung, Mean (22Rv1 tumor-bearing mice; 30 min p.i.) | Uptake Muscle, Mean (22Rv1 tumor-bearing mice; 30 min p.i.) | Uptake Spleen, Mean (22Rv1 tumor-bearing mice; 30 min p.i.) | Uptake Tumor (22Rv1), Mean (22Rv1 tumor-bearing mice; 30 min p.i.) | Uptake Blood, Mean (22Rv1 tumor-bearing mice; 60 min p.i.) | other results
O=C([O-])CN1CCN(CC(=O)[O-])CCN(CC(=O)NCCCCCC(=O)NC(Cc2cnc3ccccc3c2)C(=O)NCCCCC(NC(=O)NC(CCC(=O)O)C(=O)O)C(=O)O)CCN(CC(=O)O)CC1.[68Ga+3] (centres unmarked) [[^68Ga]Ga-PSMA-Q-2] | 2.99 ± 0.15 IA%/10^6 | 0.47 ± 0.11 | 1.87 ID%/g | 1.12 ID%/g | 1.76 ID%/g | 13.88 ID%/g | 1.62 ID%/g | 0.83 ID%/g | 0.65 ID%/g | 2.34 ID%/g | 1.34 ID%/g | 0.69 ID%/g | 0.71 ID%/g | 20.74 ID%/g | 1.21 ID%/g | 0.61 ID%/g | 0.37 ID%/g | 1.41 ID%/g | 1.87 ID%/g | 0.47 ID%/g | Uptake Heart, Mean (22Rv1 tumor-bearing mice; 30 min p.i.): 1.08 ID%/g; Uptake Bone, Mean (22Rv1 tumor-bearing mice; 60 min p.i.): 0.53 ID%/g; Uptake Heart, Mean (22Rv1 tumor-bearing mice; 60 min p.i.): 0.50 ID%/g; Uptake Kidney, Mean (22Rv1 tumor-bearing mice; 60 min p.i.): 26.62 ID%/g; Uptake Liver, Mean (22Rv1 tumor-bearing mice; 60 min p.i.): 0.52 ID%/g; Uptake Lung, Mean (22Rv1 tumor-bearing mice; 60 min p.i.): 0.55 ID%/g; Uptake Muscle, Mean (22Rv1 tumor-bearing mice; 60 min p.i.): 0.16 ID%/g; Uptake Spleen, Mean (22Rv1 tumor-bearing mice; 60 min p.i.): 1.05 ID%/g; Uptake Tumor (22Rv1), Mean (22Rv1 tumor-bearing mice; 60 min p.i.): 2.15 ± 0.33 ID%/g; Uptake Tumor (22Rv1), Mean (22Rv1 tumor-bearing mice; 60 min p.i., listed as [68Ga]Ga-PSMA-Q-2): 2.15 ID%/g; Tumor-to-kidney (T/K) ratio (22Rv1 tumor-bearing mice; [3]): 0.08 ± 0.02; Tumor-to-muscle (T/M) ratio (22Rv1 tumor-bearing mice; [3]): 13.41 ± 0.39; Clearance profile in the kidneys (22Rv1 tumor-bearing mice): continuously accumulated in the kidneys; Elimination half-life [1]: 20.22 ± 0.97 min
O=C([O-])CN1CCN(CC(=O)[O-])CCN(CC(=O)NCC2CCC(C(=O)NC(Cc3ccncc3)C(=O)NCCCCC(NC(=O)NC(CCC(=O)O)C(=O)O)C(=O)O)CC2)CCN(CC(=O)O)CC1.[68Ga+3] (centres unmarked) [[^68Ga]Ga-PSMA-4PY] | 3.01 ± 0.47 IA%/10^6 | 0.69 ± 0.26 | 1.68 ID%/g | 0.56 ID%/g | 1.87 ID%/g | 2.15 ID%/g | 1.53 ID%/g | 0.83 ID%/g | 0.67 ID%/g | 0.59 ID%/g | 1.56 ID%/g | 0.68 ID%/g | 0.28 ID%/g | 2.08 ID%/g | 0.78 ID%/g | 0.50 ID%/g | 0.31 ID%/g | 0.47 ID%/g | 1.83 ID%/g | 0.21 ID%/g | Uptake Heart, Mean (22Rv1 tumor-bearing mice; 30 min p.i.): 0.86 ID%/g; Uptake Bone, Mean (22Rv1 tumor-bearing mice; 60 min p.i.): 0.21 ID%/g; Uptake Heart, Mean (22Rv1 tumor-bearing mice; 60 min p.i.): 0.58 ID%/g; Uptake Liver, Mean (22Rv1 tumor-bearing mice; 60 min p.i.): 0.47 ID%/g; Uptake Lung, Mean (22Rv1 tumor-bearing mice; 60 min p.i.): 0.25 ID%/g; Uptake Muscle, Mean (22Rv1 tumor-bearing mice; 60 min p.i.): 0.14 ID%/g; Uptake Spleen, Mean (22Rv1 tumor-bearing mice; 60 min p.i.): 0.33 ID%/g; Uptake Tumor (22Rv1), Mean (22Rv1 tumor-bearing mice; 60 min p.i.): 2.15 ID%/g; Uptake Tumor (22Rv1), Mean (22Rv1 tumor-bearing mice; 60 min p.i., listed as [^68Ga]Ga-PSMA-Q-4PY): 2.15 ± 0.46 ID%/g; Clearance profile in the kidneys (22Rv1 tumor-bearing mice): remained relatively stable; Log p pH = 7.4 [2]: −3.49 ± 0.01; Elimination half-life [1]: 15.15 ± 0.32 min
O=C([O-])CN(CCN(CC(=O)[O-])Cc1cc(CCC(=O)NCCCCCC(=O)NCCCC[C@H](NC(=O)N[C@@H](CCC(=O)O)C(=O)O)C(=O)O)ccc1[O-])Cc1cc(CCC(=O)O)ccc1[O-].[68Ga+3].[OH3+] [[^68Ga]Ga-PSMA-11, reference compound] | 3.19 ± 0.27 IA%/10^6 | 0.76 ± 0.18 | 2.28 ID%/g | 0.72 ID%/g | 2.54 ID%/g | 10.20 ID%/g | 1.53 ID%/g | 0.77 ID%/g | 0.81 ID%/g | 0.99 ID%/g | 1.61 ID%/g | 0.91 ID%/g | 0.30 ID%/g | 2.76 ID%/g | 0.78 ID%/g | 0.53 ID%/g | 0.30 ID%/g | 0.53 ID%/g | 1.90 ID%/g | 0.22 ID%/g | Uptake Bone, Mean (22Rv1 tumor-bearing mice; 60 min p.i.): 0.17 ID%/g; Uptake Heart, Mean (22Rv1 tumor-bearing mice; 60 min p.i.): 0.53 ID%/g; Uptake Kidney, Mean (22Rv1 tumor-bearing mice; 60 min p.i.): 1.61 ID%/g; Uptake Liver, Mean (22Rv1 tumor-bearing mice; 60 min p.i.): 0.47 ID%/g; Uptake Lung, Mean (22Rv1 tumor-bearing mice; 60 min p.i.): 0.21 ID%/g; Uptake Muscle, Mean (22Rv1 tumor-bearing mice; 60 min p.i.): 0.14 ID%/g; Uptake Spleen, Mean (22Rv1 tumor-bearing mice; 60 min p.i.): 0.40 ID%/g; Uptake Tumor (22Rv1), Mean (22Rv1 tumor-bearing mice; 60 min p.i.): 2.38 ID%/g; Elimination half-life [1]: 16.69 ± 1.77 min
